Measured values from patent US8871772B2, “Therapeutic methods and compounds” (Ampio Pharmaceuticals, Inc., priority 2008, dated 2014).

Key:
Assay type in all cases: cell-based
[1] = system: AU565 breast cancer cell line; assay: Proliferation of AU565 cancer cells, Promega cell titer assay; conditions: 96 hours, negative number = increase
Method: Assays were performed to determine the effect of Cpd. 5 (synthesis described in Example 1) on proliferation of two cancer cell lines. These two cell lines were STTG grade 4 astrocytoma cell line and AU565 breast cancer cell line. Both cell lines were obtained from American Type Culture Collection, Rockville, Md. (ATCC).
To perform the assays, a 50 mM stock solution of Cpd. 5 was prepared in DMSO and frozen at −80° C. Aliquots of the stock solution were removed and 100 μM dilutions were made in Iscove's modified Dulbecco's medium (IMDM; obtained from ATCC) supplemented with 10% fetal bovine serum (FBS) and penicillin/streptomycin solution. Controls containing equivalent amounts of DMSO to the 100 μM solution were mixed for comparative purposes. 100 μl of the resulting solutions were then added to 96 well culture plates in triplicate and placed in a 37° C. incubator with 5% CO2 to warm.
At this point, cells were removed from passage flasks using trypsin and counted using trypan blue to establish cell counts/ml and viability. For all experiments, viability of cells was greater than 95%. Solutions of 4,000 cells/100 μl were prepared in the medium from above and 100 μl of the solutions were added to each well of the plates. The plates were placed back in the incubator and incubated with the compounds for 96 hours.
Following incubation, cell proliferation was assayed by adding 20 μl Promega cell titer aqueous one reagent to each well. […] The plates were incubated at 37° C. for an additional 4-18 hours to allow the colorimetric assay to develop, and the OD of each well was determined in a microplate reader using a 530 nm filter. The OD of wells containing cell titer reagent in culture medium with no cells was subtracted from the OD of all experimental readings.
The % decrease of the total cell titer signal was determined using the following formula. […] The p values were calculated versus diluent controls.

STTG cells = assay: Cytotoxicity on confluent STTG monolayers, cell titer assay
Method: To determine whether the decrease in cell titer signal caused by Cpd. 5 was due to the inhibition of proliferation or to cytotoxicity, STTG and AU565 cells were seeded at 10,000 cells/well in 96-well plates and grown until a confluent monolayer was obtained. Under these conditions, the cells should no longer proliferate. The culture medium was IMDM supplemented with 10% FBS. After the cells reached confluence, the culture medium was removed by aspiration and replaced with fresh medium containing the test compounds (see Table 2 below). The cell cultures were incubated for an additional 24 hours in the presence of the added compounds and then the cell titer signal was assayed by adding 20 μl Promega cell titer aqueous one reagent to each well. The plates were incubated at 37° C. for an additional 2 hours to allow the colorimetric assay to develop, and the OD of each well was determined in a microplate reader using a 530 nm filter. The OD of wells containing cell titer reagent in culture medium with no cells was subtracted from the OD of all experimental readings.
The % decrease of the total cell titer signal was determined using the following formula. ((Diluent OD−Experimental OD)/Diluent OD))×100. Data are presented in Table 2 as mean % decrease of cell titer signal of three separate experiments, plus or minus standard deviation. In the mean % decrease column, a positive number means a decrease in cell titer signal, while a negative number means an increase. The p values were calculated versus diluent controls.
This experiment was repeated, except using incubations of 18 hours, instead of 24 hours, in the presence of the compounds and 4 hours, instead of 2 hours, for color development.

Akt = Akt phosphorylation in WM-266-4 melanoma cells, CASE ELISA (S473); conditions: IGF-1 stimulated; for inhibition at 50 µM: WM 266-4, WM-266-4, 50 μM
Method: Assays were performed to determine the effect of Cpd. 5 (synthesis described in Example 1) on phosphorylation of Akt in WM-266-4, a metastatic melanoma cell line obtained from ATCC. The WM-266-4 cells were grown in 25 cm^2 flasks using IMDM medium (obtained from Lonza) supplemented with 10% fetal bovine serum (FBS, HyClone) and 1% penicillin/streptomycin solution (Lonza). Cells were removed from the flasks using trypsin/EDTA (Lonza) and counted using trypan blue to establish cell counts. Cells in the above supplemented IMDM medium were added to the wells of a 96-well plate (10,000 cells/well), and the plates were incubated at 37° C., 5% CO2, for 24 hours. After 24 hours, the medium was removed and replaced with medium not containing any serum (serum-free IMDM), and the plates were incubated at 37° C., 5% CO2, for an additional 24 hours.
After this incubation, the test compounds were added to the plates as follows. A 20 mM stock solution of Cpd. 5 was prepared in DMSO and frozen at −80° C. Aliquots of the stock solution were removed and dilutions were made in serum-free IMDM medium. Final concentrations of Cpd. 5 were 10 μM and 50 μM. Controls containing equivalent amounts of DMSO as the two concentrations of Cpd. 5 (0.05% and 0.25%) were mixed for comparative purposes. The other control was the PI3 kinase inhibitor, LY294002 (obtained from Sigma), final concentration of 50 μM. 100 μl of each test compound solution were then added to 96 well culture plates in duplicate, and the plates were placed back into the incubator and incubated at 37° C., 5% CO2, for 1 hour.
Following this incubation, 100 μl of serum-free IMDM containing either 0 or 400 ng/ml IGF-1 (obtained from Sigma), an Akt phosphorylation promoter, were added, and the plates incubated at 37° C., 5% CO2, for 1 more hour. At the end of this time, the cells were fixed immediately with 4% formaldehyde, refrigerated, and the extent of phosphorylation of Akt determined using the Akt Cellular Activation of Signaling ELISA (CASE™ Kit for AKT S473; SABiosciences, Frederick, Md.) following the manufacturer's protocols. The CASE™ Kit for AKT S473 quantifies the amount of activated (phosphorylated) Akt protein relative to total Akt protein. For further details of the CASE ELISA assay, see Example 6.
The results were calculated as follows. The treatment groups containing IGF-I/DMSO were subtracted from their respective IGF-1/DMSO only groups (positive control). This value was divided by the difference between the respective DMSO only group (negative control) and the respective positive control. This value represents the percent inhibition of Akt phosphorylation attributable to the inhibitor alone since the contribution of DMSO is subtracted out.

Row | Compound | MEAN % DECREASE of cell titer signal ([1]; AU565, 50 μM) [%] | MEAN % DECREASE of cell titer signal (STTG cells; 10 μM, 18 hours) [%] | MEAN % DECREASE of cell titer signal (STTG cells; 10 μM, 24 hours) [%] | MEAN % DECREASE of cell titer signal (STTG cells; 50 μM, 18 hours) [%] | MEAN % DECREASE of cell titer signal (STTG cells; 50 μM, 24 hours) [%] | MEAN % DECREASE of cell titer signal (STTG cells; 100 μM, 18 hours) [%] | MEAN % DECREASE of cell titer signal (STTG cells; 100 μM, 24 hours) [%] | inhibition at 10 µM (Akt; Homo sapiens, WM 266-4, WM-266-4, 10 μM) [%] | inhibition at 50 µM (Akt; Homo sapiens) [%] | MEAN % INHIBITION OF Akt PHOSPHORYLATION (Akt; WM-266-4, 50 μM, 50 µM) [%] | MEAN % DECREASE of cell titer signal ([1]; AU565, 20 μM) [%]
1 | COC(=O)C(c1ccc(-c2ccccc2)cc1)C1NC(=O)CNC1=O (centres unmarked) [Cpd. 5, biphenyl-4-yl-(3,6-dioxo-piperazin-2-yl)-acetic acid methyl ester] | 13.44 | 0.81 | −7.13 | 21.25 | −1.76 | 18.96 | −10.79 | 102 | 47 | 55.9 | –
2 | O=c1cc(N2CCOCC2)oc2c(-c3ccccc3)cccc12 [LY294002, reference compound] | – | – | – | 26.27 | 26.12 | – | – | – | 23.1 | – | 61.95
